Measured values from patent publication US8932617B2, “Methods for treating or preventing restenosis and other vascular proliferative disorders” (priority 2004, dated 2015).
Where “and” joins values, the source holds several entries; their conditions need not be identical. Equal values may be shown once. Entries after “also recorded” stand apart in the source; their conditions may differ. Read-outs that look alike come from different tables or passages of the source. Marks after values point to notes of the source that are not given here.

Key:
[1] = system: rat vascular SMC; assay: Smooth muscle cell migration, wound scrape assay with PDGF; assay type: cell-based; conditions: for SMC migratory rate: 100 μM, PDGF 10 ng/mL, 24 hour period, control 15.8
Experimental: A wound scrape assay was performed using rat vascular SMC. The cells were grown to confluence on 60 mm dishes. The cells were then made quiescent by incubating them in media containing 0.1% serum for 24 hrs followed by treatment with Didox, Imidate (0-100 μM), or HU (0-1000 μM) in media containing 0.1% serum and platelet derived growth factor (PDGF) at concentration of 10 ng/mL. Linear wounds were made by scraping each plate with the tip of a 20 μL pipette. The ability of cells to migrate across the wound area was measured using digital microscopy. SPOT advanced software (Diagnostic Instruments, Inc., Sterling Heights, Mich.) was used to measure the wound immediately, 2, 4, 12 and 24 hrs following injury. The data are presented as rate of migration and represent the mean±SD.
SMC migration is also a component of neointimal proliferation. Therefore, additional studies were performed in order to determine the effects of these compounds on SMC migration. Using a wound scrape assay, SMC migration studies were carried out in the presence of Didox, Imidate, and HU. VSMC's were cultured to confluence on 60 mm dishes. The cells were made quiescent by incubating in media containing 0.1% serum. Following 24 hours of serum deprivation, Didox, Imidate, and HU were added to the wells (10-1000 μM) in the presence of PDGF (10 ng/mL) and a linear wound was made across the plate. SMC migration across the wound was monitored by digital microscopy over a 24 hour period. […] In contrast, HU (100 μM) had little effect on SMC migration, resulting in a migratory rate of […] (FIG. 4). […] This would be expected to contribute to the vascular protective effects afforded by these drugs.

[2] = system: SMC dATP pools; assay: Intracellular dNTP quantitation (dATP pools) by HPLC; assay type: cell-based, rat; conditions: 24 hours; for dATP levels: control 303; for maximal reduction in dATP content: Didox 0-200 μM, Imidate 0-200 μM, HU 0-1000 μM
Experimental: SMC were plated in T150 flasks and treated with Didox (0-200 μM), Imidate (0-200 μM) or HU (0-1000 μM) and incubated for 24 hours. Following the 24 hour incubation period, the cells were trypsinized and collected in 50 mL centrifuge tubes along with the incubation media. All the extraction steps were performed on ice. Immediately before processing, cells were counted and viability determined using the trypan blue exclusion method. The cells were then centrifuged 5 minutes at 800×g. The cell pellet was then deproteinized with the same volume of 6% TCA, vortexed for 20 s and incubated on ice for 10 minutes. The acid cell extracts were centrifuged 10 min at 2000×g. The supernatants were then supplemented with an equal volume of distilled water, vortexed for 60 s and neutralized by the addition of 5M K2CO3 prior to HPLC analysis. dNTP detection was carried out using an ESA (Chelmsford, Mass.) HPLC chromatographic system with UV-Vis detection. Chromatographic separations were performed using a TosoHaas C18 reverse phase column (ODS 80Tm 250×4.6 mm, 5 μm pore). The mobile phase was delivered at a rate of 1.0 mL/min during the analysis using the following stepwise gradient elution program: A-B (80-20) at 0 min; (40-60) at 30 min; (40-60) at 40 min and (80-20) at 45 min. Buffer A contained 10 mM tetrabutylammonium sulfate, 10 mM KH2PO4 and 0.25% MeOH, and adjusted to pH 6.9. Buffer B consisted of 5.6 mM tetrabutylammonium sulfate, 50 mM KH2PO4 and 30% MeOH, and neutralized to pH 7.0. The injection volume for analysis was 50 μL. Detection was carried out at 254 nm.
In order to further validate that the observed anti-proliferative properties afforded by these compounds was through inhibition of ribonucleotide reductase activity, the effects of these compounds on intracellular dATP pools were measured.

[3] = system: rat carotid artery, balloon mediated injury (restenosis); assay: Rat model of balloon mediated carotid artery injury (Example 1), morphometric analysis; assay type: in vivo; conditions: two weeks post injury; intraperitoneal injection; vs untreated injured artery
Experimental: To determine the ability of the ribonucleotide reductase inhibitors to affect restenosis, a rat model of balloon mediated carotid artery injury was utilized. Percutaneous transluminal carotid angioplasty (PTCA) was performed using a 2F Fogarty Embolectomy Catheter, which was inserted through the right, external carotid artery and inflated (2 atm) and deflated four times inside the right common carotid artery and rotated to cause endothelial injury. Immediately following the carotid injury, the rats received ribonucleotide reductase inhibitors, Didox (N,3,4-trihydroxybenzamide) Imidate (ethyl-3,4,5-trihydroxybenzenecarboximidate.HCl), or Hydroxyurea via intraperitoneal injection. The degree of restenosis was assessed using morphometric analysis at two weeks post injury.

[4] = system: rat carotid artery, balloon mediated injury (restenosis); assay: Rat balloon carotid injury (Example 2), morphometric analysis at 2 and 6 weeks; assay type: in vivo; conditions: for decrease in neointimal area / decrease in intima/media ratio: 200 mg kg^-1 d^-1 i.p. for 7 days
Description: Male Wistar rats, weighing 400-450 g (Harlan) were fed standard pellet feed and given water ad libitum. The experimental protocol was designed in accordance with Institutional ILACUC standards. Animals were anesthetized with Isoflurane (1.5-2%) in air. The right carotid artery was exposed and a 2F Fogarty balloon embolectomy catheter (Baxter) was inserted via an external carotid arteriotomy incision. The catheter was advanced to the common carotid artery, inflated to a pressure of 2 atm and rotated in a forward and retrograde direction. The catheter was then deflated and the process repeated three times. Treatment cohorts were divided into 5 groups (n=6-8/group): Control (sham operated), Didox (200 mg-kg^−1 d^−1), Imidate (200 mg kg^−1)HU (200 mg kg^−1 d^−1) and vehicle (saline). Drugs were administered daily by i.p. injection for a period of 7 days after injury. At 2 weeks post-injury, rats were euthanized by pentobarbital overdose and perfused with 10% buffered formalin Carotid arteries were removed and placed in the same fixative. Tissues were then embedded in paraffin, and 4 to 5 sections (4 μm) were cut at multiple levels. These sections were then stained with hematoxylin-eosin or elastic-van Gieson stain. Sections were examined microscopically and the cross-sectional areas of the lumen, neointima (from the internal elastic lamina to the lumen), and media were determined using digital microscopy with Spot Advanced software. The intima-to-media (I/M) ratio was then calculated from the determined mean. The data represent the mean±SD.
The effects of Didox, Imidate, and Hydroxyurea (HU) on the vascular remodeling process following arterial injury were determined using a rat model of balloon mediated carotid injury. Each compound (200 mg kg^−1 d^−1) was delivered via i.p. injection for a period of 7 days post injury. These dosages are based on previously published reports and represent ½ the maximum tolerated dose of Hydroyurea in rats (Gupta and Yaffe, (1982) Pediatr Pharmacol (New York) 2:85-91; Vaughan et al., (1989) Cancer Chemother Pharmacol 23:26-30).
At 14 days post injury the animals were sacrificed and morphometric analysis was carried out in order to asses the histopathological changes in the vessel wall (FIG. 1). […] HU afforded similar vascular protective effects to those observed with Didox and Imidate, resulting in a 55% decrease in neointimal area and a 63% decrease in intima/media ratio (FIG. 2). […] However, because the remodeling process occurs over a prolonged period of time, additional studies were performed in order to determine whether the vascular protective effects observed would be mitigated over time.
To further investigate long-term efficacy of the one week dosing regimen, the duration of the study period was increased to 6 weeks. […] The beneficial effect of ribonucleotide reductase inhibition persisted over the long term. Each compound (200 mg kg^−1 d^−1) was given i.p. for a period of 7 days followed by a 5 week recovery period. […] Similarly, Imidate offered a 61% reduction in neointimal area and a 62% reduction in intima/media ratio (FIG. 3).

[5] = system: Rat vascular smooth muscle cells; assay: SMC proliferation, cell count by flow cytometry; assay type: cell-based; conditions: 24 hours incubation, cells counted by flow cytometry, read-out: IC50 on inhibition of smooth muscle cell growth
Experimental: SMC were plated on 6 well dishes at a density of 2×10^5 cells per well. Cells were then treated with Didox (0-200 μM), Imidate (0-200 μM) or HU (0-1000 μM) and incubated for 24 hours. Following the 24 hour incubation period, the cells were trypsinized and collected in 15 mL centrifuge tubes. The cells were then centrifuged 5 minutes at 800×g. The supernatant was discarded and the pellet was resuspended in 5 ml PBS. The cells were centrifuged 6 minutes at 200×g. The supernatant was removed and the pellet was then thoroughly resuspended in 0.5 ml PBS. The cell suspension was transferred into tubes containing 70% ethanol, keeping the cells in fixative for greater than about 2 hours. The ethanol suspended cells were centrifuged 5 minutes at 200×g, and the ethanol was decanted. The cell pellet was resuspended in 5 ml PBS and after one minute was centrifuged 5 min at 200×g. The top layer of liquid was again removed and the cell pellet was resuspended in 1 ml PI/Triton X-100 staining solution with RNAse A. This staining solution was then incubated at room temperature for 30 minutes. Flow cytometry was then performed using a FACS Calibur (Becton Dickenson). The data are presented as the mean.
Didox, Imidate, and to a much lesser degree, HU, are known to be ribonucleotide reductase inhibitors (Elford, (1968) Biochem Biophys Res Commun 33:129-135; Elford et al., (1970) J Biol Chem 245:5228-5233; Elford et al., (1979) Cancer Res 39:844-851). ribonucleotide reductase catalyzes the reductive conversion of ribonucleotides to deoxynucleotides. This reductive reaction is a prime target for impeding cellular proliferation, and therefore amenable to inhibiting VSMC replication, because it is a rate limiting step in the biochemical pathway leading to DNA synthesis (Elford et al., (1970) J Biol Chem 245:5228-5233; Elford et al., (1979) Cancer Res 39:844-851; Takeda and Weber, (1981) Life Sci 28:1007-1014; Natsumeda et al., (1985) Cancer Res 45:2556-2559). […] Therefore, the IC50 of each compound on inhibition of smooth muscle cell growth was determined. […]

[6] = 6 weeks post injury, 5 week recovery

SMILES | SMC migratory rate [1] [µm/h] | effect on SMC migration ([1]; HU concentrations up to 1 mM, listed as HU) | dATP levels ([2]; 5 μM) [Pmoles/10^7 cells] | dATP levels ([2]; 100 μM) | dATP levels ([2]; 500 μM) [Pmoles/10^7 cells] | dATP levels ([2]; 1000 μM) [Pmoles/10^7 cells] | maximal reduction in dATP content [2] [%] | Lumen, % change as compared to injured vessel (increase in lumen area) [3] | Neointima, % change as compared to injured vessel (decrease in neointimal formation) [3] | Neointima/Media, % change as compared to injured vessel (reduction in intima/media ratio) [3] | Wall Thickness, % change as compared to injured vessel (reduction) [3] | decrease in neointimal area [4, 6] [%] | decrease in intima/media ratio ([4]; 14 days post injury) | decrease in neointimal area ([4]; 14 days post injury) [%] | IC50 ([5]; Rattus norvegicus) [µM] | dATP levels ([2]; 10 μM) [Pmoles/10^7 cells] | dATP levels ([2]; 50 μM) | dATP levels ([2]; 200 μM) | change in medial area ([4]; one week of systemic administration after balloon injury) | IC50 [5] [µM]
NC(=O)NO [Hydroxyurea, reference compound] | 15.1 | No further inhibition; also recorded: no effect on SMC migration | 320 | 266 Pmoles/10^7 cells | 93 | 92 | 69 | ↑22 ± 5% | ↓ 91 ± 6% | ↓ 93 ± 7% | ↓ 54 ± 9% | 71 | 63% | 55 | 266 |  |  |  |  | 
CCOC(=N)c1cc(O)c(O)c(O)c1.Cl [Imidate, ethyl-3,4,5-trihydroxybenzenecarboximidate-HCl] | 0.9 |  | 293 | 184* Pmoles/10^7 cells |  |  | 42 | ↑19 ± 5% | ↓ 65 ± 7% | ↓ 69 ± 8% | ↓ 41 ± 7% | 61 | 55% and 60% | 57 | 82 | 311 | 210 Pmoles/10^7 cells | 173* Pmoles/10^7 cells | small but statistically significant decrease in medial area | 
O=C(NO)c1ccc(O)c(O)c1 [Didox, N-3,4-trihydroxybenzamide] | 1.7 |  | 297 | 140* Pmoles/10^7 cells |  |  | 58 |  |  |  |  | 64 | 61% and 60% | 62 |  | 260 | 203* Pmoles/10^7 cells | 126* Pmoles/10^7 cells |  | 67
